Source: US20060030719A1, “Cis-3,5-disubstituted-dihydro-furan-2-ones and the preparation and use thereof” (priority 2004, published 2006)

Question: For `C[C@@H]1C[C@H](CC2CCCCC2)C(=O)O1` (relative stereo) [Example 20, cis-3-cyclohexylmethyl-5-methyl-dihydro-furan-2-one], which melting point is on record?
Answer: 60 to 62 °C
